Data: patent publication US20260365670A1, “EGFR INHIBITORS AND USES THEREOF” (DIZAL (JIANGSU) PHARMACEUTICAL CO., LTD., priority 2022, published 2026)
Like-named read-outs stand apart in the source and are kept apart here.

What was measured:
[1] = tested on: Ba/F3 cells expressing EGFR mutations; test: Cell proliferation assay, Ba/F3 cells expressing EGFR mutations (CellTiter-Glo, 72 hours); type: cell-based
Protocol: (§1) Biological Example 2: Cell Proliferation Assays
(§2) Ba/F3 cells expressing EGFR mutations were seeded in 384-well plates at 5000 cells/well in RPMI1640 medium containing […]. PC-9 at 500 cells/well was seeded into 384-well plates in RPMI1640 medium with 10% FBS. After overnight incubation, the assay plates were dosed with compounds at a series of concentrations. Alongside dosing the assay plates, the day 0 plate was processed using CellTiter-Glo® Luminescent Cell Viability Assay (Promega) to measure the number of viable cells (G0). The assay plates were further incubated for 72 hours and the number of viable cells (G3) was measured. The percentage of proliferation was calculated as: […]=100×(G3 value of sample well−G0 value)/(G3 value of DMSO control−G0 value). The concentration of compound producing 50% proliferation inhibition (GI50) was further calculated in best-fit curves using XLFit software. N/A=not available.

PC-9 = test: Cell proliferation assay, PC-9 cells (CellTiter-Glo, 72 hours); type: cell-based; settings: PC9 cells
Protocol: as §1, §2

EGFR (d746-750 C797S) = biological target: T1, EGFR (d746-750 C797S) (Homo sapiens, UniProt P00533, C797S/DEL746-750); test: Inhibition of EGFR (d746-750 C797S) biochemical enzymatic activity (HTRF); settings: EGFR (d746-750 C797S), 1 mM ATP, 1 h at room temperature, read-out: IC50 @Del19-C797S
T1 construct: purchased signalchem
Protocol: (§3) Biological Example 1: Inhibition of EGFR WT and Mutant Biochemical Enzymatic Activity
(§4) The inhibition potency of compounds against these enzymes was assessed using Homogenous Time Resolved Fluorescence approach (HTRF, CisBio. Cat No. 62TKOPEJ).
(§5) Inhibitory effects of the compounds were determined by measuring the enzymatic activity of EGFR enzyme phosphorylates 1 μM TK Substrate-biotin in the presence of 1 mM adenosine-5′-triphosphate (ATP) and varying concentrations of the test compound. The enzyme reaction buffer contains 5 mM MgCl2, 1 mM MnC12, 0.01% CHAPS, 1 mM dithiothreitol (DTT), 0.5% dimethylsulfoxide (DMSO), and 1× supplemented enzymatic buffer. The WT and mutant EGFR enzymes (SignalChem) were added to plates containing inhibitors, followed by activation of the kinase reaction by addition of ATP and peptide substrates. After incubation for 1 h at room temperature, the reaction was stopped by the addition of the detection reagent mix containing EDTA. The fluorescence was measured at 615 nm and 665 nm, respectively with excitation wavelength at 320 nm. The calculated signal ratio of 665 nm/615 nm is proportional to the kinase activity. The concentration of compound producing 50% inhibition of the respective kinase (IC50) was calculated using four-parameter logistic fit with XL-FIT.

EGFR Exon19Del = biological target: T2, EGFR Exon19Del (Homo sapiens, UniProt P00533, DEL746-750); test: Inhibition of EGFR Exon19Del biochemical enzymatic activity (HTRF); settings: EGFR Exon19Del, 1 mM ATP, 1 h at room temperature, read-out: IC50 @Del19
T2 construct: purchased Carna Bio
Protocol: as §3, §4, §5

EGFR L858R = biological target: T3, EGFR L858R (Homo sapiens, UniProt P00533, L858R); test: Inhibition of EGFR L858R biochemical enzymatic activity (HTRF); settings: 1 mM ATP, 1 h at room temperature, read-out: IC50 @L858R
T3 construct: purchased Carna Bio
Protocol: as §3, §4, §5

EGFR Exon19Del/T790M = biological target: T4, EGFR Exon19Del/T790M (Homo sapiens, UniProt P00533, DEL746-750/T790M); test: Inhibition of EGFR Exon19Del/T790M biochemical enzymatic activity (HTRF); settings: EGFR Exon19Del/T790M, 1 mM ATP, 1 h at room temperature, read-out: IC50 @Del19-T790M
T4 construct: purchased Carna Bio
Protocol: as §3, §4, §5

EGFR (C797S L858R) = biological target: T5, EGFR (C797S L858R) (Homo sapiens, UniProt P00533, C797S/L858R); test: Inhibition of EGFR (C797S L858R) biochemical enzymatic activity (HTRF); settings: EGFR (C797S L858R), 1 mM ATP, 1 h at room temperature, read-out: IC50 @L858-C797S
T5 construct: purchased signalchem
Protocol: as §3, §4, §5

EGFR L858R/T790M = biological target: T6, EGFR L858R/T790M (Homo sapiens, UniProt P00533, L858R/T790M); test: Inhibition of EGFR L858R/T790M biochemical enzymatic activity (HTRF); settings: EGFR L858R/T790M, 1 mM ATP, 1 h at room temperature, read-out: IC50 @L858R-T790M
T6 construct: purchased Carna Bio
Protocol: as §3, §4, §5

[2] = biological target: T7, EGFR[T790M/C797S/d746-750] (Homo sapiens, UniProt P00533, C797S/DEL746-750/T790M); test: Inhibition of EGFR[T790M/C797S/d746-750] biochemical enzymatic activity (HTRF); settings: EGFR[T790M/C797S/d746-750], 1 mM ATP, 1 h at room temperature, read-out: IC50 @T790M - C797S - Del19
T7 construct: purchased Carna Bio
Protocol: as §3, §4, §5

EGFR[T790M/C797S/L858R] = biological target: T8, EGFR[T790M/C797S/L858R] (Homo sapiens, UniProt P00533, C797S/L858R/T790M); test: Inhibition of EGFR[T790M/C797S/L858R] biochemical enzymatic activity (HTRF); settings: EGFR[T790M/C797S/L858R], 1 mM ATP, 1 h at room temperature, read-out: IC50 @T790M- C797S - L858R
T8 construct: purchased Carna Bio
Protocol: as §3, §4, §5

[3] = BaF3 cells, EGFR DEL19-C797S, CellTiter-Glo, read-out: DEL19-C797S/BaF3 GI50
[4] = BaF3 cells, EGFR DEL19-T790-C797S, CellTiter-Glo, read-out: DEL19-T790-C797S/BaF3 GI50
[5] = BaF3 cells, EGFR L858R, CellTiter-Glo, read-out: L858R/BaF3 GI50
[6] = BaF3 cells, EGFR L858R-C797S, CellTiter-Glo, read-out: L858R-C797S/BaF3 GI50
[7] = BaF3 cells, EGFR L858R-T790-C797S, CellTiter-Glo, read-out: L858R-T790-C797S/BaF3 GI50
[8] = BaF3 cells, EGFR L858R-T790M, CellTiter-Glo, read-out: L858R-T790M/BaF3 GI50
[9] = EGFR DEL19-T790M, CellTiter-Glo, read-out: DEL19-T790M GI50
[10] = CellTiter-Glo, read-out: PC9 GI50

T3 sequence (P00533 25-1210 L858R): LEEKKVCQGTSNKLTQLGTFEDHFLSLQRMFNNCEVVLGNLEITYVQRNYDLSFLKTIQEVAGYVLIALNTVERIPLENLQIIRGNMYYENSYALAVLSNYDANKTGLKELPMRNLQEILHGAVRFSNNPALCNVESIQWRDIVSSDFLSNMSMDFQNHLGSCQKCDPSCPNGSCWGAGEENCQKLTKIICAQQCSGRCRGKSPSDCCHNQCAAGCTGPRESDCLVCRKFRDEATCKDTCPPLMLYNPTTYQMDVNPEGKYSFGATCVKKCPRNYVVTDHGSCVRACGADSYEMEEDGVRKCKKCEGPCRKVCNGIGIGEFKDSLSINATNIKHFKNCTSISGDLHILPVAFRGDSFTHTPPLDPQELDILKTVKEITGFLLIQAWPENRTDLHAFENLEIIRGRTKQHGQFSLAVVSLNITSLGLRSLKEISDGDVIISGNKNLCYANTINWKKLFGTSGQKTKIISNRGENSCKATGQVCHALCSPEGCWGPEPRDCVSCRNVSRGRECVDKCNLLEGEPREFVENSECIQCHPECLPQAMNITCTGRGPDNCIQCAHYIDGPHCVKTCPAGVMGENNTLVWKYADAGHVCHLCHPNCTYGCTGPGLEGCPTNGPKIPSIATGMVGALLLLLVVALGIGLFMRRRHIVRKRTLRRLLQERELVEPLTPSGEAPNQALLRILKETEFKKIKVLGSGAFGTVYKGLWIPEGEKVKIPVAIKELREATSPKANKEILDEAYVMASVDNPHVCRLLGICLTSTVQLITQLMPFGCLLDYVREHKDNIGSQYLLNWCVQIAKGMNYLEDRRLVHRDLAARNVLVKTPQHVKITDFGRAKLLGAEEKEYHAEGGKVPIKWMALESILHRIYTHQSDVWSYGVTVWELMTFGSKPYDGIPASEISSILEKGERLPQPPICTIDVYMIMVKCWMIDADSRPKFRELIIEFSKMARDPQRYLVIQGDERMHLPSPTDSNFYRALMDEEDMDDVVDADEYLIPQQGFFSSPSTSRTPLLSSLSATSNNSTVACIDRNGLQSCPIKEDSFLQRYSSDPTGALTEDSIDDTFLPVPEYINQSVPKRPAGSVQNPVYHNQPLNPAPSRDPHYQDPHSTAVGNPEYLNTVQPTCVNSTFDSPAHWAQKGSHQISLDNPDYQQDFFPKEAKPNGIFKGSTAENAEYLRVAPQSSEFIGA
T4 sequence (P00533 with tags, fused parts or gaps DEL746-750/T790M limits assumed): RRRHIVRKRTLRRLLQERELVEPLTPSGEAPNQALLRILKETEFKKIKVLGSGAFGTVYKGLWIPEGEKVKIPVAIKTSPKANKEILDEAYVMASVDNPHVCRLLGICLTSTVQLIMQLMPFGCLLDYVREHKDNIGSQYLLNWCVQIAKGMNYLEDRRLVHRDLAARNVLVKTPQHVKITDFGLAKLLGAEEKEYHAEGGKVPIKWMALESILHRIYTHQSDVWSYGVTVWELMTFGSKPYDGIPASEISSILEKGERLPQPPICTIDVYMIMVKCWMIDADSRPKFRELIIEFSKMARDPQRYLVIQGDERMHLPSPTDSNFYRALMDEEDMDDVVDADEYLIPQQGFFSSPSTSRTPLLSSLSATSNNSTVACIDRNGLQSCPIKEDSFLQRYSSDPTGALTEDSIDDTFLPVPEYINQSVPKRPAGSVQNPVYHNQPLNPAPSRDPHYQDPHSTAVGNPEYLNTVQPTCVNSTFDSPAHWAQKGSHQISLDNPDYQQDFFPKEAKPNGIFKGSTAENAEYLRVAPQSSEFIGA
T8 sequence (P00533 25-1210 T790M/C797S/L858R): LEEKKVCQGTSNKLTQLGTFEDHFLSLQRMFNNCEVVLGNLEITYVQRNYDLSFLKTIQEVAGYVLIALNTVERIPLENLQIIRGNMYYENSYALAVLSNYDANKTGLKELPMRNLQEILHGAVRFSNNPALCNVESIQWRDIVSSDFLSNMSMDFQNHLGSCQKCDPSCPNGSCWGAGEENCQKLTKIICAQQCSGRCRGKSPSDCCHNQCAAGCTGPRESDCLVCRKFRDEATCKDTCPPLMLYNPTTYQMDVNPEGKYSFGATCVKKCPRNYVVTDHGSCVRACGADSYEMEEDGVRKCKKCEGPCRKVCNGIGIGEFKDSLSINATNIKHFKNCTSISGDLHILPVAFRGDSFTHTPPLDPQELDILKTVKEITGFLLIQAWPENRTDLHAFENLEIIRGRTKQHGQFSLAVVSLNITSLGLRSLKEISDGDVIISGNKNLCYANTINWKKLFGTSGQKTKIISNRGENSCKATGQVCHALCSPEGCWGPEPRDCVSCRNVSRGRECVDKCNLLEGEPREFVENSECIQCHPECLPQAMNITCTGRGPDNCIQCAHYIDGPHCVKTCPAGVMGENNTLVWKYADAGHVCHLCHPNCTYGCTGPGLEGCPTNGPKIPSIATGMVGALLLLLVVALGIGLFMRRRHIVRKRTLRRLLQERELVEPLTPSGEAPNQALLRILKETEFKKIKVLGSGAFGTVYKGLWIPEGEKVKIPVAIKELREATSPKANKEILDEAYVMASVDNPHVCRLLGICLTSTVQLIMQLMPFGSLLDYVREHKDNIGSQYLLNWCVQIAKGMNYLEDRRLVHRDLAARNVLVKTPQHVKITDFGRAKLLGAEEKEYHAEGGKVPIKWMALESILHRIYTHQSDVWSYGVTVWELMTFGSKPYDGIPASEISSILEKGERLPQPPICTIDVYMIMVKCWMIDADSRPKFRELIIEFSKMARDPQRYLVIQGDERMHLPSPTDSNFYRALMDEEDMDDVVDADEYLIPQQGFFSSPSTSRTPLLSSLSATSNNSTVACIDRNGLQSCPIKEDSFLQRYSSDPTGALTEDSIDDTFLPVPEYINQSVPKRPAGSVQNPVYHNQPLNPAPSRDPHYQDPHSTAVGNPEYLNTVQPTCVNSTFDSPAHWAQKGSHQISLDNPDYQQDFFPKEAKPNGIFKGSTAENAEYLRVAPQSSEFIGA
T1 sequence (P00533 with tags, fused parts or gaps DEL746-750/C797S limits assumed): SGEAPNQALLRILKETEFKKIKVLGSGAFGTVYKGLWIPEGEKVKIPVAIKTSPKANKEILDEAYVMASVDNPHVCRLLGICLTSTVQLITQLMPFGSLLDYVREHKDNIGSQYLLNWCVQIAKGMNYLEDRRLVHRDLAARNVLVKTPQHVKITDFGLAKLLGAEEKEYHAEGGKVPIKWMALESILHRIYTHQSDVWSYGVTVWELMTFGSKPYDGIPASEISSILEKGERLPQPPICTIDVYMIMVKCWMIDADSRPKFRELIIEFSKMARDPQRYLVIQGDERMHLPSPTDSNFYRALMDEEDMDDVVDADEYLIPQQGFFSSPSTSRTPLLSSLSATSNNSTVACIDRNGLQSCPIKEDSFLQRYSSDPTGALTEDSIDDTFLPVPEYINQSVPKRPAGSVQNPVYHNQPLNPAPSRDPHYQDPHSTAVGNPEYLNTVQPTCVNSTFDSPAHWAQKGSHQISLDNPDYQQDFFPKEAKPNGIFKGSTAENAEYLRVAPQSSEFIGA
T5 sequence (P00533 25-1210 C797S/L858R): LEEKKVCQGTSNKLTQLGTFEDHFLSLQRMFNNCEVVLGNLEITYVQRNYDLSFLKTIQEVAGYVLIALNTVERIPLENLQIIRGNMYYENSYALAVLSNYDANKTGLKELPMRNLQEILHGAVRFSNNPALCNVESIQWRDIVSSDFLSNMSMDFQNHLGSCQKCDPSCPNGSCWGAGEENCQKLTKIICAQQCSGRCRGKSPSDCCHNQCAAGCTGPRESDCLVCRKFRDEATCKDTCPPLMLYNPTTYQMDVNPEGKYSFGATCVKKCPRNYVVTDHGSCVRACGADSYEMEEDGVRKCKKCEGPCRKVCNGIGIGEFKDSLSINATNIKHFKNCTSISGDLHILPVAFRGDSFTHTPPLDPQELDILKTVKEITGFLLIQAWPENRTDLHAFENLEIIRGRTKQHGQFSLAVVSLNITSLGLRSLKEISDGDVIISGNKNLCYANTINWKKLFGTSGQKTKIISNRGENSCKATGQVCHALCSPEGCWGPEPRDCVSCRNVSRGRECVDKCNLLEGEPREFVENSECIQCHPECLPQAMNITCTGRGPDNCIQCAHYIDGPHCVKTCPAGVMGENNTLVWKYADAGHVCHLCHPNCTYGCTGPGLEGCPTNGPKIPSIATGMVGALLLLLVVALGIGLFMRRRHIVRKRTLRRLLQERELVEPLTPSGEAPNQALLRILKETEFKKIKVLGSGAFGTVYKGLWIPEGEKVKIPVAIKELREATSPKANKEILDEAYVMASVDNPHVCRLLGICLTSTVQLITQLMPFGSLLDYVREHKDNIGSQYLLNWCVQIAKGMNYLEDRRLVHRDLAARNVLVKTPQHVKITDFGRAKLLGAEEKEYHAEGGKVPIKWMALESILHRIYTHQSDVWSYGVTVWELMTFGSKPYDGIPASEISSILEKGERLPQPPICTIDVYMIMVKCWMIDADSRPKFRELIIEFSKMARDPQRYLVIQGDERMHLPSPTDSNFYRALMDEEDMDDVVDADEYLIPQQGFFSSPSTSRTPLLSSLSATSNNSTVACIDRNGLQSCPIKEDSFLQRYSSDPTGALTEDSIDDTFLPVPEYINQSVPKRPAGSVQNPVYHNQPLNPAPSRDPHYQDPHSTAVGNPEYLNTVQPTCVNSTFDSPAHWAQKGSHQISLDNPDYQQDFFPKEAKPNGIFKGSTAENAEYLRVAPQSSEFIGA

Structure (SMILES)	GI50 [1, 3]	GI50 [1, 4]	GI50 [1, 5]	GI50 [1, 6]	GI50 [1, 7]	GI50 [1, 8]	GI50 [1, 9]	GI50 (PC-9; [10])	other results
CN(C)[C@H]1CCN(c2ccc3nc4n(c3c2)C23CCC(CN(CCOc5c(cnn5C)-c5cc(cn(C)c5=O)C(=O)N4)C2)C3)C1 (single isomer, unassigned) [Example A66A]	177 nM	466 nM	1140 nM	709 nM	600 nM	2130 nM	622 nM	705 nM	
CN(C)[C@@H]1CCN(c2ccc3nc4n(c3c2)C23CCC(CN(CCOc5c(cnn5C)-c5cc(cn(C)c5=O)C(=O)N4)C2)C3)C1 (single isomer, unassigned) [Example A66C]	156 nM	548 nM	1580 nM	688 nM	549 nM	1520 nM	723 nM	703 nM	
CN(C)CC1(F)CN(c2ccc3nc4n(c3c2)C23CCC(CN(CCOc5c(cnn5C)-c5cc(cn(C)c5=O)C(=O)N4)C2)C3)C1 (single isomer, unassigned) [Example A72A]	351 nM	1060 nM	866 nM	632 nM	1820 nM	2770 nM	1230 nM	1060 nM	
CN1CC2(CCN(c3ccc4nc5n(c4c3)C34CCC(CN(CCOc6c(cnn6C)-c6cc(cn(C)c6=O)C(=O)N5)C3)C4)C2)C1 (single isomer, unassigned) [Example A73A]	94 nM	302 nM	550 nM	357 nM	184 nM	1100 nM	190 nM	515 nM	
CN1CCN(C2CCN(c3ccc4nc5n(c4c3)C34CCC(CN(CCOc6c(cnn6C)-c6cc(cn(C)c6=O)C(=O)N5)C3)C4)C2)CC1 (single isomer, unassigned) [Example A80A, 15,21-Dimethyl-5-[3-(4-methylpiperazin-1-yl)pyrrolidin-1-yl]-23-oxa-2,9,11,15,20,21,26-heptaazaheptacyclo[24.4.1.1^{1,28}.1^{13,17}.0^{2,10}.0^{3,8}.0^{18,22}]tritriaconta-3,5,7,9,13,17(33),18(22),19-octaene-12,16-dione]	135 nM	587 nM	312 nM	193 nM	523 nM	450 nM	477 nM	295 nM	
CN1CCN(C2CCN(c3ccc4nc5n(c4c3)C34CCC(CN(CCOc6c(cnn6C)-c6cc(cn(C)c6=O)C(=O)N5)C3)C4)C2)CC1 (single isomer, unassigned) [Example A80B2, 15,21-Dimethyl-5-[3-(4-methylpiperazin-1-yl)pyrrolidin-1-yl]-23-oxa-2,9,11,15,20,21,26-heptaazaheptacyclo[24.4.1.1^{1,28}.1^{13,17}.0^{2,10}.0^{3,8}.0^{18,22}]tritriaconta-3,5,7,9,13,17(33),18(22),19-octaene-12,16-dione]	0.5 nM	0.7 nM	0.63 nM	0.5 nM	0.73 nM	0.67 nM	0.7 nM	3.6 nM	
Cc1cc2cc(n1)-c1cnn(C)c1OCCN1CC3CCC(C3)(C1)n1c(nc3ccc(N4CCC(N5CCOCC5)C4)cc31)NC2=O (single isomer, unassigned) [Example B44A]									IC50 (EGFR (d746-750 C797S)): > 5000 nM; IC50 (EGFR Exon19Del): > 5000 nM; IC50 (EGFR L858R): > 5000 nM; IC50 (EGFR Exon19Del/T790M): > 5000 nM; GI50 ([1]; BaF3 cells, EGFR DEL19 - C797S, read-out: GI50 DEL19 - C797S/BaF3): 312 nM; GI50 ([1]; BaF3 cells, EGFR DEL19 - T790-C797S, read-out: GI50 DEL19 - T790-C797S/BaF3): 321 nM; GI50 ([1]; BaF3 cells, EGFR L858R - C797S, read-out: GI50 L858R - C797S/BaF3): 624 nM; GI50 ([1]; BaF3 cells, EGFR L858R - T790-C797S, read-out: GI50 L858R - T790-C797S/BaF3): 52 nM; GI50 ([1]; BaF3 cells, EGFR L858R - T790M, read-out: GI50 L858R - T790M/BaF3): 326 nM; GI50 ([1]; BaF3 cells, EGFR L858R, read-out: GI50 L858R/BaF3): 3000 nM; GI50 ([1]; EGFR DEL19 - T790M, read-out: GI50 DEL19 - T790M): 368 nM; IC50 (EGFR (C797S L858R)): > 5000 nM; IC50 (EGFR L858R/T790M): > 5000 nM; IC50 [2]: 4640 nM; IC50 (EGFR[T790M/C797S/L858R]): > 5000 nM; GI50 (PC-9; read-out: GI50 PC9): 1400 nM
C[C@@H]1CCCOc2c(cnn2C)-c2cc(cn(C3CC3)c2=O)C(=O)Nc2nc3ccc(N4CCN(C)CC4)cc3n2C1 [Example A15, (11R)-26-cyclopropyl-5,11-dimethyl-16-(4-methylpiperazin-1-yl)-7-oxa-4,5,13,20,22,26-hexaazapentacyclo[22.3.1.0^{2,6}.0^{13,21}.0^{14,19}]octacosa-1(28),2(6),3,14,16,18,20,24-octaene-23,27-dione]									GI50 ([1]; Mus musculus, BaF3, 72 h, BaF3 cells, EGFR DEL19-C797S, CellTiter-Glo, read-out: DEL19-C797S/BaF3 GI50): 495 nM; GI50 ([1]; Mus musculus, BaF3, 72 h, BaF3 cells, EGFR DEL19-T790-C797S, CellTiter-Glo, read-out: DEL19-T790-C797S/BaF3 GI50): 2100 nM; GI50 ([1]; Mus musculus, BaF3, 72 h, BaF3 cells, EGFR L858R, CellTiter-Glo, read-out: L858R/BaF3 GI50): 1390 nM; GI50 ([1]; Mus musculus, BaF3, 72 h, BaF3 cells, EGFR L858R-C797S, CellTiter-Glo, read-out: L858R-C797S/BaF3 GI50): 1580 nM; GI50 ([1]; Mus musculus, BaF3, 72 h, BaF3 cells, EGFR L858R-T790-C797S, CellTiter-Glo, read-out: L858R-T790-C797S/BaF3 GI50): 4910 nM; GI50 ([1]; Mus musculus, BaF3, 72 h, BaF3 cells, EGFR L858R-T790M, CellTiter-Glo, read-out: L858R-T790M/BaF3 GI50): 1550 nM; GI50 ([1]; Mus musculus, BaF3, 72 h, EGFR DEL19-T790M, CellTiter-Glo, read-out: DEL19-T790M GI50): 2620 nM; GI50 (PC-9; Homo sapiens, PC-9, 72 h, CellTiter-Glo, read-out: PC9 GI50): 2070 nM
